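48-hour exposure; five concentrations; linearly interpolated endpoints. GI50 marks 50% less growth.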 The source made the active and inactive calls. No stated cut-off is given here; in the data, active = GI50 up to about 1.1 µM and inactive = higher.
Assays:
Assay in all cases: growth of human tumour cells (NCI), 48 h
ACHN = test system: ACHN
EKVX = test system: EKVX
IGROV-1 = test system: IGROV-1
K562 = test system: K562
MOLT-4 = test system: MOLT-4
Malme-3M = test system: Malme-3M
NCI-H226 = test system: NCI-H226
NCI-H23 = test system: NCI-H23
RXF 393 = test system: RXF 393
SF-295 = test system: SF-295
SK-MEL-2 = test system: SK-MEL-2
SK-MEL-5 = test system: SK-MEL-5
SK-OV-3 = test system: SK-OV-3
SW-620 = test system: SW-620
TK-10 = test system: TK-10
U-251 = test system: U-251
UACC-257 = test system: UACC-257
UO-31 = test system: UO-31
OVCAR-3 = test system: OVCAR-3
OVCAR-8 = test system: OVCAR-8

Measured: GI50

C=Cc1cc2c(cc1O)CC[C@@H]1[C@@H]2CC[C@]2(C)[C@@H](O)CC[C@@H]12
inactive: ACHN 7.23 µM | EKVX 7.38 µM | IGROV-1 8.09 µM | K562 3.03 µM | MOLT-4 3.9 µM | Malme-3M 2.18 µM | NCI-H226 12.4 µM | NCI-H23 3.18 µM | RXF 393 2.56 µM | SF-295 3.82 µM | SK-MEL-2 5.78 µM | SK-MEL-5 4.39 µM | SK-OV-3 5.79 µM | SW-620 4.32 µM | TK-10 12.2 µM | U-251 4.19 µM | UACC-257 4.15 µM | UO-31 7 µM

OCc1nnn2c1CCC2
inactive: ACHN > 100 µM | EKVX > 100 µM | IGROV-1 > 100 µM | K562 > 100 µM | MOLT-4 > 100 µM | Malme-3M > 100 µM | NCI-H23 > 100 µM | OVCAR-3 > 100 µM | OVCAR-8 > 100 µM | RXF 393 > 100 µM | SF-295 > 100 µM | SK-MEL-2 > 100 µM | SK-MEL-5 > 100 µM | SK-OV-3 > 100 µM | SW-620 > 100 µM | TK-10 > 100 µM | U-251 > 100 µM | UACC-257 > 100 µM | UO-31 > 100 µM

CO/N=C1/c2sccc2[C@H](NC(=O)CNC(=O)OC(C)(C)C)[C@@H]1O
inactive: EKVX > 100 µM | IGROV-1 > 100 µM | K562 > 100 µM | MOLT-4 > 100 µM | Malme-3M > 100 µM | NCI-H226 > 100 µM | NCI-H23 > 100 µM | OVCAR-3 > 100 µM | OVCAR-8 > 100 µM | RXF 393 > 100 µM | SF-295 > 100 µM | SK-MEL-2 > 100 µM | SK-MEL-5 > 100 µM | SK-OV-3 > 100 µM | SW-620 > 100 µM | TK-10 > 100 µM | U-251 > 100 µM | UACC-257 > 100 µM | UO-31 > 100 µM

CC12CC3(C)CC(C)(C1)CC(N=[N+]=[N-])(C2)C3
inactive: ACHN > 100 µM | EKVX > 100 µM | IGROV-1 > 100 µM | K562 > 100 µM | MOLT-4 > 100 µM | Malme-3M > 100 µM | NCI-H226 > 100 µM | NCI-H23 > 100 µM | OVCAR-3 > 100 µM | OVCAR-8 > 100 µM | RXF 393 > 100 µM | SF-295 > 100 µM | SK-MEL-2 > 100 µM | SK-MEL-5 > 100 µM | SK-OV-3 > 100 µM | SW-620 > 100 µM | TK-10 > 100 µM | U-251 > 100 µM | UACC-257 > 100 µM | UO-31 > 100 µM

O=c1cnn(CCOCP(=O)(O)O)c(=O)[nH]1
inactive: ACHN > 100 µM | EKVX > 100 µM | IGROV-1 > 100 µM | K562 > 100 µM | MOLT-4 > 100 µM | Malme-3M > 100 µM | NCI-H226 > 100 µM | NCI-H23 > 100 µM | OVCAR-3 > 100 µM | OVCAR-8 > 100 µM | RXF 393 > 100 µM | SK-MEL-2 > 100 µM | SK-MEL-5 > 100 µM | SW-620 > 100 µM | TK-10 > 100 µM | U-251 > 100 µM | UACC-257 > 100 µM | UO-31 > 100 µM

CC(=O)OCC1=C(COC(C)=O)C(=O)c2c(O)ccc(O)c2C1=O
inactive: ACHN 10.2 µM | EKVX 15.1 µM | IGROV-1 16 µM | K562 17.9 µM | MOLT-4 1.37 µM | Malme-3M 4.28 µM | NCI-H226 15.8 µM | NCI-H23 12.1 µM | OVCAR-3 7.1 µM | OVCAR-8 10.2 µM | SF-295 13.4 µM | SK-MEL-2 3.11 µM | SK-MEL-5 14.8 µM | SK-OV-3 18.8 µM | SW-620 3.21 µM | TK-10 16.3 µM | U-251 13.1 µM | UACC-257 5.14 µM | UO-31 15.4 µM

CCN(CC)CCNCc1cc(Cl)cc2c1OCOC2
inactive: ACHN > 10 µM | EKVX > 10 µM | IGROV-1 > 10 µM | K562 > 10 µM | MOLT-4 > 10 µM | Malme-3M > 10 µM | NCI-H226 > 10 µM | NCI-H23 > 10 µM | OVCAR-3 > 10 µM | OVCAR-8 > 10 µM | RXF 393 > 10 µM | SF-295 > 10 µM | SK-MEL-2 > 10 µM | SK-MEL-5 > 10 µM | SK-OV-3 > 10 µM | SW-620 > 10 µM | TK-10 > 10 µM | U-251 > 10 µM | UO-31 > 10 µM

Cc1[nH]c(=O)[nH]c(=O)c1/C=C/C(=O)NC(CO)C[S+]([O-])C[S+](C)[O-] (stereo not given)
inactive: EKVX 16.4 µM | IGROV-1 12.6 µM | K562 19.5 µM | MOLT-4 18.7 µM | Malme-3M 12.2 µM | NCI-H226 17.5 µM | NCI-H23 10.8 µM | OVCAR-3 7.87 µM | OVCAR-8 28.4 µM | RXF 393 20.8 µM | SF-295 15.6 µM | SK-MEL-2 13.5 µM | SK-MEL-5 18 µM | SK-OV-3 20.5 µM | SW-620 38.6 µM | U-251 3.8 µM | UACC-257 21.8 µM | UO-31 23.7 µM

CCn1cc(C(c2ccc(Cl)cc2)n2ccnc2)c2cc(Br)ccc21 (stereo not given)
inactive: ACHN 12.8 µM | EKVX > 100 µM | IGROV-1 9.31 µM | K562 4.85 µM | MOLT-4 1.85 µM | Malme-3M 17.7 µM | NCI-H226 22.1 µM | NCI-H23 14.5 µM | OVCAR-3 10.3 µM | OVCAR-8 10.8 µM | RXF 393 14.8 µM | SF-295 10.8 µM | SK-MEL-2 17 µM | SK-MEL-5 15.7 µM | SK-OV-3 17.7 µM | TK-10 16.1 µM | U-251 14.7 µM | UACC-257 14.1 µM | UO-31 6.9 µM

O=C1C(c2ccc(C3=[N+]([O-])c4cc([N+](=O)[O-])ccc4C3=O)cc2)=[N+]([O-])c2cc([N+](=O)[O-])ccc21
inactive: ACHN > 10 µM | EKVX > 10 µM | IGROV-1 > 10 µM | K562 > 10 µM | MOLT-4 > 10 µM | Malme-3M > 10 µM | NCI-H226 > 10 µM | NCI-H23 > 10 µM | OVCAR-3 > 10 µM | OVCAR-8 > 10 µM | RXF 393 > 10 µM | SF-295 > 10 µM | SK-MEL-2 > 10 µM | SK-MEL-5 > 10 µM | SK-OV-3 > 10 µM | SW-620 > 10 µM | TK-10 > 10 µM | U-251 > 10 µM | UACC-257 > 10 µM | UO-31 > 10 µM

O=C(Nc1nc2ncn(CCNCc3ccccc3)c2c(=O)[nH]1)c1ccccc1
inactive: ACHN > 100 µM | EKVX > 100 µM | IGROV-1 > 100 µM | K562 > 100 µM | Malme-3M > 100 µM | NCI-H226 > 100 µM | OVCAR-3 > 100 µM | OVCAR-8 > 100 µM | RXF 393 91 µM | SF-295 > 100 µM | SK-MEL-2 > 100 µM | SK-MEL-5 > 100 µM | SK-OV-3 > 100 µM | SW-620 > 100 µM | TK-10 > 100 µM | U-251 > 100 µM | UACC-257 > 100 µM | UO-31 50.8 µM

CCC(=O)NC(OCC1(CC)COC1)(C(F)(F)F)C(F)(F)F
inactive: ACHN > 100 µM | EKVX > 100 µM | K562 > 100 µM | MOLT-4 > 100 µM | Malme-3M > 100 µM | NCI-H226 > 100 µM | NCI-H23 > 100 µM | OVCAR-3 > 100 µM | RXF 393 92.3 µM | SK-MEL-2 > 100 µM | SK-OV-3 > 100 µM | TK-10 > 100 µM | U-251 > 100 µM | UACC-257 > 100 µM | UO-31 > 100 µM

NC(=S)N/N=C1\C(=O)Nc2c(Cl)cc(Cl)cc21
inactive: ACHN 37.4 µM | EKVX 20.3 µM | IGROV-1 22.5 µM | K562 29.6 µM | MOLT-4 14 µM | Malme-3M 16.2 µM | NCI-H226 15.7 µM | NCI-H23 37.6 µM | OVCAR-3 11.7 µM | OVCAR-8 18.1 µM | RXF 393 16 µM | SF-295 19.2 µM | SK-MEL-2 15.5 µM | SK-MEL-5 14.4 µM | SK-OV-3 41.9 µM | SW-620 30.5 µM | TK-10 73.1 µM | U-251 19.5 µM | UACC-257 24.2 µM | UO-31 28.1 µM

C1#Cc2ccccc2OCCOc2ccccc2C#Cc2ccccc2OCCOc2ccccc21
inactive: ACHN 15 µM | EKVX 26.5 µM | IGROV-1 15.6 µM | K562 11.7 µM | MOLT-4 16.2 µM | Malme-3M 28.1 µM | NCI-H226 19.1 µM | NCI-H23 16.9 µM | OVCAR-3 14 µM | OVCAR-8 13.8 µM | RXF 393 14.7 µM | SF-295 21.6 µM | SK-MEL-2 71 µM | SK-MEL-5 18.2 µM | SW-620 34 µM | TK-10 28.8 µM | U-251 12.5 µM | UACC-257 > 100 µM | UO-31 46.7 µM

COc1ccc2[nH]c(Cl)c(/C=C3/C(=O)Nc4cc(C)c(OC)cc43)c2c1
inactive: ACHN 9.53 µM | EKVX 9.53 µM | IGROV-1 4.31 µM | K562 4.39 µM | MOLT-4 4.32 µM | Malme-3M 5.82 µM | NCI-H23 5.11 µM | OVCAR-3 2.66 µM | OVCAR-8 7.71 µM | RXF 393 11.1 µM | SF-295 1.98 µM | SK-MEL-2 2.4 µM | SK-MEL-5 2.25 µM | SK-OV-3 2.52 µM | SW-620 4.21 µM | TK-10 9.18 µM | U-251 4.88 µM | UACC-257 11.4 µM | UO-31 12.2 µM
